Test results published in PubChem BioAssay AID602267 (Broad Institute, 2012).
Activity calls are given as the source filed them.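 Rule for the calls: active = signal falls with dose and the fitted half-maximal concentration is at or below twice the top valid tested dose; inconclusive = flat curve with 30 to 70% inhibition, or poor fit; inactive = wrong direction, flat within 30%, or potency beyond limit.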

Each compound was assayed against Golgi-associated PDZ and coiled-coil motif-containing protein (Homo sapiens) (UniProt Q9HD26) (assay: CAL PDZ domain peptide-binding inhibitors, dose response, biochemical, fluorescence polarization, untagged CAL PDZ, cherry-pick (AID 602267)). Details: purified CAL PDZ, TMR-peptide fluorescence polarization, 1 h.

Structure (SMILES) | AC50
CCc1ccc(S(=O)(=O)/N=C2/C=C(Sc3ncn[nH]3)C(=O)c3ccccc32)cc1 | 16.4 µM
COc1ccc(OC)c(-c2c3cc(O)c(=O)cc-3oc3cc(O)c(O)cc23)c1 | 21.4 µM

Same assay, conditions: purified CAL PDZ, TMR-peptide fluorescence polarization, 1 h; at 16 µM (top of the series)

Structure (SMILES) | activity change, negative = inhibition
CC1CCN(c2nc3c(c(=O)n(C)c(=O)n3C)n2CCSc2nc3ccccc3s2)CC1 | inactive
C=CCOc1c(Cl)cc(CNn2cn[nH]c2=S)cc1OC | inactive

Same assay, conditions: purified CAL PDZ, TMR-peptide fluorescence polarization, 1 h; at 50 µM (top of the series)

Structure (SMILES) | activity change, negative = inhibition
C[C@H](NC(=O)c1ccccc1Cl)C(=O)NCc1cccs1 | inactive
N#C/C(=C\c1c[nH]c2ccccc12)C(=O)NC1CC1 | inactive
CC(O)CNCCCOc1cccc(Oc2ccccc2)c1 (stereo unspecified) | inactive
CCC(C)(C)NC(=O)CSc1nc(Cc2ccccc2)nc2ccccc12 | inactive
O=P(O)(COc1ccccc1)COc1ccccc1 | inactive
CSC1=NP(=S)(SC)N2CCCC2=C1C#N (stereo unspecified) | inactive
COc1cc(Br)c(C(=O)c2nccc3cc(OC)c(OC)cc23)cc1OC | inactive
COc1cccc(N2CCN(C(=O)c3ccc(-c4ccccc4)cc3)CC2)c1 | inactive
O=C(c1ccc([N+](=O)[O-])cc1)N1CCC(Cc2ccccc2)CC1 | inactive
CCn1ncc(Br)c1C(=O)Nc1cccc(F)c1 | inactive
Cc1cccc(CN2CCc3c([nH]c4ccccc34)C2CC(C)C)n1 (stereo unspecified) | inactive
Nc1ccc(N(CCO)CCO)cc1 | inactive
Cc1ccc2nc(NS(C)(=O)=O)sc2c1 | inactive
CS(=O)(=O)c1ccc2nc(NC(=O)CN3C(=O)C4CC=CCC4C3=O)sc2c1 (stereo unspecified) | inactive
O=c1c2cc3c(cc2[nH]c(=S)n1CCN1CCOCC1)OCO3 | inactive
COc1cc(C(=O)NC(C)CCc2ccccc2)cc(OC)c1OC (stereo unspecified) | inactive
CN(C)/N=C1\CCS(=O)(=O)c2sccc21 | inactive
Cc1cccc(C)c1NC(=S)NC(=O)c1ccc(Br)o1 | inactive
COCC(=O)NNC(=O)c1ccc(OC)cc1 | inactive
COc1cc(C)cc(CN2CC=C(c3ccccc3)CC2)c1O | inactive
O=C(c1cc2cc([N+](=O)[O-])ccc2oc1=O)N1CCN(C2CCCCC2)CC1 | inactive
Cc1c(Cl)c(C(=O)N2CCCC2)nn1C | inactive
COc1ccc(Oc2nc3c(c(=O)n(C)c(=O)n3C)n2C)cc1 | inactive

Structure (SMILES) | activity change, negative = inhibition
COc1ccc(CN(C)C(C)C(=O)NC2CCCc3ccccc32)cc1 (stereo unspecified) | inactive
Cc1ccc(S(=O)(=O)N2CCN(CCC#N)CC2)cc1 | inactive
CCOC(=O)c1nc(NCCc2ccccc2)sc1C | inactive
OCC1(CCOc2ccccc2)CCN(CCCn2cccn2)CC1 | inactive
Cc1cc(SC2CCOC2=O)nc2ccccc12 (stereo unspecified) | inactive
O=C(Nc1cc(Cl)ccc1N1CCOCC1)c1ccc2c(c1)OCCO2 | inactive
CC(C)Oc1ccc(C(=O)Nc2ccc(S(=O)(=O)N3CCN(C)CC3)cc2)cc1 | inactive
S=C(NCCc1ccccc1)N1CCn2cccc2C1c1cccnc1 (stereo unspecified) | inactive
O=C(COC(=O)c1ccc(Cl)nc1)Nc1ccc(N2CCCCC2)cc1 | inactive
CCC(C(=O)NN1C(=O)c2ccccc2C1=O)c1ccccc1 (stereo unspecified) | inactive
CN1CCN(c2ccccc2NC(=O)c2ccc(N3CCCC3)c([N+](=O)[O-])c2)CC1 | inactive
COC(=O)CN1C(=O)N/C(=C/c2cc(Cl)c(OC)c(OC)c2)C1=O | inactive
O=C1CSC(=Nc2ccccc2Cl)N1 | inactive
CCOCCCNC(=O)c1ccc2c(=O)n(Cc3ccc4c(c3)OCO4)c(=S)[nH]c2c1 | inactive
CCN1CCN(S(=O)(=O)c2ccc(OC)c3ccccc23)CC1 | inactive
COc1ccc(C(C)=O)cc1COC(=O)CNC(=O)c1ccccc1F | inactive
O=C(CCN1C(=O)c2ccccc2C1=O)CN1CCOCC1 | inactive
COc1cc(/C=C2\C(=O)NC(=O)N(c3ccccc3)C2=O)c([N+](=O)[O-])cc1OC | inactive
COc1ccc(N2CCN(C3CCCN(Cc4ccc(F)cc4)C3)CC2)cc1 (stereo unspecified) | inactive
Cc1ccc(-n2c(SCC(N)=O)nnc2-c2ccco2)cc1 | inactive
N/C(=N\OC(=O)Cc1ccccc1[N+](=O)[O-])c1cccnc1 | inactive
CCOc1ccccc1CN1CCC(n2nccc2NC(=O)C2CCCC2)CC1 | inactive
O=C(NCc1cccs1)c1cccn2c(=O)c3sccc3nc12 | inactive

Structure (SMILES) | activity change, negative = inhibition
O=C(CN1CC[n+]2c(-c3cccs3)csc21)c1ccc(-c2ccccc2)cc1 | inactive
CC(C)(C)c1nn(-c2ccccc2)c2[nH]c(=O)c(C=O)cc12 | inactive
Cc1ccc(S(=O)(=O)N2CCN(C(=O)c3cc(=O)c4ccccc4o3)CC2)cc1 | inactive
CCOC(=O)Cn1ncn(-c2ccc(OC(F)(F)F)cc2)c1=O | inactive
CCc1nnc(NS(=O)(=O)c2ccc(NC(=O)CCC(=O)O)cc2)s1 | inactive
CCNC(=S)N(CCN(CC)CC)Cc1cc2cc3c(cc2[nH]c1=O)OCCO3 | inactive
Cc1cccc(C(=O)Nc2ccc(C(=O)/C=C/c3ccncc3)cc2)c1 | inactive
COc1ccc(CC(=O)N2CCC(CCC(=O)Nc3ccccc3)CC2)cc1 | inactive
O=C(NCc1cccnc1)/C(=C/c1ccc(-c2cccc(C(F)(F)F)c2)o1)NC(=O)c1ccccc1 | inactive
CC1CCCCC1NCC(=O)NCc1ccc(F)cc1 (stereo unspecified) | inactive
Cc1cc(/C=C2\SC(=O)N(C)C2=O)c(C)n1-c1ccc(O)cc1 | inactive
Cc1ccnc2nc(C(=O)OCCOc3ccc(F)cc3)nn12 | inactive
O=C(Nc1ccc([N+](=O)[O-])cc1)Nc1cnccn1 | inactive
CS(=O)(=O)c1ccc(Cl)c(NC(=O)COC(=O)c2c(Cl)cccc2Cl)c1 | inactive
O=C(OCc1ccc(Br)cc1)c1cccnc1 | inactive
O=C(OCC(=O)N1CCc2ccccc2C1)c1cccnc1Cl | inactive
CCCn1cnc2c(SCCc3ccccc3)nc(N)nc21 | inactive
CSc1cccc(NC(=O)N2CCCC(CNS(=O)(=O)Cc3ccccc3)C2)c1 (stereo unspecified) | inactive
COc1ccc(/C=C/C(=O)Nc2ccc3nc4n(c(=O)c3c2)CCCC4)cc1OC | inactive
COc1ccc(S(=O)(=O)N2CC(=O)Nc3ccccc32)cc1F | inactive
CCOc1ccc(NC(=O)c2nsc(Cl)c2Cl)cc1 | inactive
COc1ccc(OC)c(NC(=O)CS(=O)(=O)Cc2ccccc2)c1 | inactive
COC(=O)c1ccccc1NC(=O)n1cc(C)cn1 | inactive

Structure (SMILES) | activity change, negative = inhibition
Cc1ccc(SCC(=O)NCc2ccc(F)cc2)cc1 | inactive
COc1ccc(/C=N/NC(=O)c2cccc(C(F)(F)F)c2)cc1 | inactive
O=C(O)c1cccc(Nc2ccc([N+](=O)[O-])cn2)c1 | inactive
CC1CCC(NC(=O)c2ccc3c(c2)S(=O)(=O)c2ccccc2C3=O)CC1 (stereo unspecified) | inactive
CNC(=O)c1nnn(Cc2ccccc2)c1NC(C)=O | inactive
S=C(NCCc1ccccc1)NC1CCC(NC(=S)NCCc2ccccc2)CC1 (stereo unspecified) | inactive
CC(=O)NC1C(=O)N(CCN2CCOCC2)c2ccc(Cl)cc21 (stereo unspecified) | inactive
CCC1C(=O)NCCN1C(=O)CCc1nnc(CCc2ccc(OC)cc2)o1 (stereo unspecified) | inactive
O=[N+]([O-])c1ccccc1/C=N/Nc1nc(N2CCCC2)nc(N2CCCC2)n1 | inactive
Cc1ccc(-c2[nH]c3ccccc3c2SCCN)cc1 | inactive
Cc1cc(C)c(OCC(=O)OC(C)C(=O)NC2CC2)c(C)c1 (stereo unspecified) | inactive
COn1c(SCc2ccccc2)nc2ccccc2c1=O | inactive
CCC(=O)Nc1ccc(S(=O)(=O)NCc2ccco2)cc1 | inactive
CC12CCC(C(=O)N(CCCN3CCN(Cc4ccccc4)CC3)C1=O)C2(C)C (stereo unspecified) | inactive
Cc1ccccc1N1CCN(S(=O)(=O)c2ccccc2)CC1 | inactive
COc1ccc2ccccc2c1CN(C)Cc1ccccc1 | inactive
CCC(=O)c1cn(CC(=O)Nc2cccc(C)c2C)c2ccccc12 | inactive
COc1ccc(/C=N/N2CCN(c3ccccc3OC)CC2)cc1Br | inactive
O=C(NCc1cccnc1)c1ccc(Cn2c(=S)[nH]c3ccc(Br)cc3c2=O)cc1 | inactive
CO[C@H]1O[C@H](C)[C@@H](O)C[C@H]1NC(=O)OCc1ccccc1 | inactive
COc1ccc(C(=O)Nc2nccs2)cc1 | inactive
O=C(COc1ccccc1)N1CCCCCCC1 | inactive
CCOc1c(Cl)cc(CNc2nnnn2C)cc1OC | inactive
